A short description of data set [1]: Partition coefficient, log P of the compound. It counts as physicochemical. The conditions noted are these: octanol/water.
Data set [2] in a line: Solubility in water. It is filed as physicochemical. To be noted: buffer.

Molecules are shown by their SMILES. Converted amounts (≈) assume the structure as drawn.

A word on the logP: it is a log measure of how a compound divides between an organic and an aqueous phase. A higher logP goes with a more lipophilic compound. For orientation: Solubility means the dissolved amount per volume that the medium holds. Low readings indicate little dissolved substance, high ones much dissolved substance.

Compound `Nc1ccc2ccc3cccc4ccc1c2c34` [AMINOPYRENE] displayed a logP in data set [1] of 4.99. Further, the Solubility in data set [2] is recorded as 0.576 g/L (≈ 2.65 mM).

As to `Nc1ccc(Cc2ccc(N)cc2)cc1`, in data set [2], the Solubility is given as 1 10^3g/L.

Consider `Nc1ccc2c(c1)Cc1ccccc1-2`, for which the Solubility in data set [2] worked out at 8.78 g/L (≈ 48.4 mM).

For `Cc1cc(-c2ccc(N)c(C)c2)ccc1N` [ORTHOTOLIDINE], the Solubility in data set [2] is reported as 1.3 10^3g/L.

With `Nc1c(Br)cc([N+](=O)[O-])cc1[N+](=O)[O-]`, the logP in data set [1] worked out at 2.73.

`Nc1ccc(Br)cc1` [4-BROMOANILINE] showed a Solubility in data set [2] of 707 g/L (≈ 4110 mM).

`Nc1ccc2cc3ccccc3cc2c1` [2-AMINOANTHRACENE] yielded a lipophilicity (logP) in data set [1] of 2.62. The compound also had a Solubility in data set [2] of 1.3 g/L (≈ 6.73 mM).

In the case of `Nc1cccc2cc3ccccc3cc12`, in data set [2], the Solubility is recorded as 2.59 g/L (≈ 13.4 mM).

The compound `Nc1ccc2c3c(cccc13)-c1ccccc1-2` came in with a Solubility in data set [2] of 0.715 g/L (≈ 3.29 mM).

For the origin of these results see ChEMBL document CHEMBL1139964, “Biopartitioning micellar chromatography to predict mutagenicity of aromatic amines” (Eur J Med Chem, 2007).
